Results from US20240139153A1, “Inhibition of Endothelial ETS Family Transcription Factors Promotes Flow-Dependent Ocular Vessel Regression” (Oklahoma Medical Research Foundation, priority 2020, published 2024).

Assays:
[1] = system: hyaloid vessels; test: Hyaloid vessel regression after intravitreal injection; type: in vivo, mice; settings: intravitreal injection at P5, assessed at P7, versus vehicle-injected littermate controls; final concentration ~10 μmol/L in vitreous
Method: Hyaloid Dissection and Quantification. Hyaloid were dissected and quantified as described previously. Briefly, eyes were enucleated from P4-P8 mice and fixed for 30 min in 4% paraformaldehyde (PFA). The eyes were then transferred to PBS and dissected by removal of the lens and sclera leaving the retinal cup in which the hyaloids were loosely wrapped around the lens. The lens was then carefully removed from which the hyaloids were gently removed. The hyaloids were then transferred in a drop of PBS and flat mounted for imaging by carefully removing the remaining PBS.
Quantification of hyaloid regression was accomplished by drawing an outline of hyaloid flat mounts (labeled with Isolectin-B4) which was then decreased in size by 50% and centered over the hyaloid flat mount. Blind counts of hyaloid vessel number were performed by counting the number of vessels which crossed the 50% outline.
Hyperthermia-induced anesthesia of wild type P5 mice was accomplished by submerging pups in ice for 5-8 min after placing them in a latex blanket wrapped in foil to avoid direct contact between the pup and ice. Once anesthetized (assessed by toe pinch) eyes were administered a drop of proparacaine hydrochloride ophthalmic solution (Akorn), followed by gentle exposure of the eye globe. […] Eyelids were then reclosed around the eye, and erythromycin ophthalmic ointment (Akorn) was applied. […]

[2] = system: 3D HUVEC cultures; test: Vasculogenic 3D collagen assay, regression of 3D lumenized HUVEC cultures; type: cell-based, Human
Method: Vasculogenic 3D collagen assays. Human Umbilical Vein ECs were purchased from Lonza and used from passages 3 to 6 as previously described^42,43. ECs were suspended in 2.5 mg/mL collagen type I matrices, and assays were performed as described^42,43. With the exception that the culture media contained reduced serum supplement (RSII), ascorbic acid, FGF-2, Stem cell factor (SCF) at 40 ng/ml and interleukin-3 (IL-3) were added at 40 ng/ml. Stromal-derived factor-1α (SDF-1α) was added at 200 ng/ml into collagen type I matrices. Cultures were incubated at 37° C. in serum-free defined media and allowed to assemble over time. Cultures were fixed at 72 hr with 3% glutaraldehyde before staining with 0.1% toluidine blue in 30% methanol for nonfluorescent visualization. Lumen area was quantified by using Metamorph software as previously described^42,43. Individual data points were obtained from a triplicate wells and a minimum of 12 independent fields from these wells.
Bioassays with pharmacologic agents and cytokines. […] In some assays, triplicate wells were lysed with sample buffer and Western blots were performed to probe for pro-caspase 3 and actin.
YK-4-279 promotes flow-dependent vascular regression in vitro. […] Importantly, this culture model recapitulates many aspects of in vivo vessel morphology and has previously been used to model vascular regression^40.

[3] = system: HUVECs; test: HUVEC flow chamber study, static versus flow; type: cell-based, Human
Method: Cell Culture/Flow Studies. Flow-based cell culture was performed using HUVECs (ATCC; #PCS-100-010) cultured in complete EGM-2 media (Lonza). HUVECs were cultured on Ibidi Luer^0,6 flow slides and allowed to grow at 37° C. in 5% CO2 for 24 h to a confluency of 80-90%. Slides were then attached to an Ibidi pump system with Perfusion Set Red (1.6 mm, #10962) and exposed to a sheer stress of 10 dyn/cm^2 for 24 h. Static conditions were achieved by similarly plating HUVECs in flow slides that were not exposed to flow. […] Cells were gently washed with 1 mL ice-cold PBS, then fixed and permeabilized by incubation with ice-cold methanol for 5 min. Fixed cells were treated with 1% BSA, 0.02% Triton X-100 for 1 hr at room temperature. Primary and secondary antibodies were added in 1% BSA and incubated for 2 hr at room temperature.
HUVECs grown in this 3D culture model form vascular lumens despite the absence of blood flow. […] This possibility is supported by a recent report that the transcriptional consequences of ERG inhibition are greatly mitigated in ECs exposed to sheer stress^58.

[4] = system: healthy retinal vessels; test: Healthy retinal vessels of adult wild type mice after intravitreal injection; type: in vivo; settings: 48 hr after intraocular injection
Description: Vascular length (FIG. 8B; n=4) and branch points (FIG. 8C; n=4) from retinas treated as in (FIG. 8A) were quantified using AutoTube and normalized to retinal area per image. NS=not significant (two-tailed Student's t-test). Error bars=S.D.

[5] = system: retinal neovessels; settings: OIR mice
Description: OIR Studies/Quantification. […] Generally, pups with their dams were maintained in room air from birth until P7. From P7 to P12 pups were exposed to 75% O2 in an oxygen chamber regulated by an OxyCycler Model A84. After 2.5 d of oxygen exposure, the dams were replaced with healthy lactating dams to prevent oxygen toxicity. At P12 pups were returned to room air until P18.
Two days after the injection, P20 mice were euthanized and retinas were dissected and immunostained for CD31 to quantify retinal vascular area as previously described^45.

[6] = system: ROP; settings: intravitreal injection, randomized study; cited from earlier work
[7] = inhibitor-injected eye relative to control eye

Compound | reduction in hyaloid vessel number [1] [%] | concentrations giving significant, dose-dependent loss of vascular luminal area ([2]; 3D HUVEC cultures, 48 h treatment, toluidine blue stain) | pro-caspase 3 signal (Western blot) ([2]; 3D HUVEC cultures, FIG. 5C) | extent of vascular regression (3D HUVEC lumen area) on co-incubation with cytokines ([2]; co-incubation of TNFα or IL1β with YK-4-279, versus YK-4-279 alone) | active caspase-3 staining ([3]; flow conditions, 10 dyn/cm^2) | alignment of HUVECs in the direction of flow ([3]; flow conditions, 10 dyn/cm^2) | cell number ([3]; flow conditions, 10 dyn/cm^2) | active caspase-3 staining ([3]; static conditions, 5 μM, 24 hr) | cell number ([3]; static conditions, 5 μM, 24 hr) | effects on retinal vascularization (vascular length, branch points) [4] | mice showing an increase in neovessels [5, 7] | mice with a decrease in retinal neovascular area [5, 7] | decrease in the retinal avascular area ([5]; intravitreal injection at P18, analysed at P20, versus vehicle) [%] | reduction in retinal neovascular area ([5]; intravitreal injection at P18, analysed at P20, versus vehicle-injected contralateral eye) [%] | efficacy versus conventional laser-based therapy for treating ROP [6]
COc1ccc(C(=O)CC2(O)C(=O)Nc3c(Cl)ccc(Cl)c32)cc1 (stereo not drawn) [YK-4-279] | ~40 | greater than 1.25 μM | Reduced pro-caspase 3 signal | further increases the extent of vascular regression | no apparent effect | inhibited the alignment | no apparent effect | increased active caspase-3 staining | significantly reduced cell numbers | no effects | one | 9 out of 11 | ~60 | ~40 | 
bevacizumab: a monoclonal VEGF-A antibody |  |  |  |  |  |  |  |  |  |  |  |  |  |  | more effective
